Experimental data taken from ChEMBL document CHEMBL3137667, “[Drug-induced liver injury; fourteenth updated edition of the bibliographic database of liver injuries and related drugs]” (Gastroenterol Clin Biol, 2004).

Assays:
[1] = human
[2] = human, serum
[3] = human; remark: listed apart in the source
[4] = human; remark: listed apart in the source
[5] = human; remark: listed apart in the source
[6] = human; remark: listed apart in the source
[7] = human, serum; remark: listed apart in the source
[8] = Highest frequency of moderate liver toxicity observed during clinical trials, expressed as a percentage. [column '% BIOL' in source]; conditions: human
[9] = human; remark: listed apart in the source
[10] = human; remark: listed apart in the source
[11] = human, serum, 4383 h
[12] = human; remark: listed apart in the source
[13] = Times to onset, minimal and maximal, observed in the indexed observations. [column 'DELAI' in source]; conditions: human
[14] = human; remark: listed apart in the source
[15] = Highest frequency of acute liver toxicity observed during clinical trials, expressed as a percentage. [column '% AIGUE' in source]; conditions: human
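Wherever Hepatotoxicity (association with vascular disease) is given: count of indexed literature references reporting vascular liver injury in humans, e.g. peliosis hepatitis, hepatic veno-occlusive disease or Budd-Chiari syndrome.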
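Wherever Hepatotoxicity (benign tumour) is given: value is a count of indexed literature references citing a benign tumour confirmed by histopathology.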
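Wherever Hepatotoxicity (choleostasis) is given: human cholestatic liver injury, shown by histopathology or by peak ALT or AST elevation over alkaline phosphatase ratio below 2, value counts indexed literature reports.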
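Wherever Hepatotoxicity (chronic liver disease) is given: chronic liver injury confirmed by histopathology or persistently raised serum aminotransferase activity beyond 6 months, value given as the count of indexed literature references.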
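Wherever Hepatotoxicity (cirrhosis) is given: value is a count of indexed literature references reporting cirrhosis confirmed by histopathology.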
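Wherever Hepatotoxicity (cytolytic) is given: human cytolytic liver injury, shown by histopathology or by a ratio above 5 of peak ALT or AST elevation to alkaline phosphatase elevation, value counts indexed references.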
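Wherever Hepatotoxicity (granulomatous hepatitis) is given: value is a count of indexed literature references reporting granulomatous liver disease confirmed by histopathology.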
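Wherever Hepatotoxicity (malignant tumour) is given: malignant tumour confirmed by histopathology, value gives the count of indexed literature references reporting it.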
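Wherever Hepatotoxicity (severe hepatitis) is given: human clinical data: severe hepatitis, meaning potentially life-threatening liver failure or clinically observed cases, the value counts how many indexed literature references report it.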
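Wherever Hepatotoxicity (steatosis) is given: steatosis confirmed by histopathology, value is the count of indexed references.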

Cc1cc(C(=O)NNCc2ccccc2)no1 [ISOCARBOXAZID]
Hepatotoxicity (association with vascular disease) [1]: 0 | Hepatotoxicity (acute) [2]: 4 | Hepatotoxicity (benign tumour) [3]: 0 | Hepatotoxicity (choleostasis) [4]: 2 | Hepatotoxicity (severe hepatitis) [5]: 1 | Hepatotoxicity (malignant tumour) [6]: 0 | Hepatotoxicity (moderate) [7]: 1 | Hepatotoxicity (moderate) [8]: 0% | Hepatotoxicity (cytolytic) [9]: 4 | Hepatotoxicity (granulomatous hepatitis) [10]: 0 | Hepatotoxicity (chronic liver disease) [11]: 0 | Hepatotoxicity (cirrhosis) [12]: 0 | Hepatotoxicity (time to onset) [13]: 1 month - 4 months | Hepatotoxicity (steatosis) [14]: 0 | Hepatotoxicity (acute) [15]: 0%

CC(C)[N+](C)(CCC(C(N)=O)(c1ccccc1)c1ccccc1)C(C)C [ISOPROPAMIDE]
Hepatotoxicity (association with vascular disease) [1]: 0 | Hepatotoxicity (acute) [2]: 1 | Hepatotoxicity (benign tumour) [3]: 0 | Hepatotoxicity (choleostasis) [4]: 0 | Hepatotoxicity (severe hepatitis) [5]: 0 | Hepatotoxicity (malignant tumour) [6]: 0 | Hepatotoxicity (moderate) [7]: 0 | Hepatotoxicity (moderate) [8]: 0% | Hepatotoxicity (cytolytic) [9]: 1 | Hepatotoxicity (granulomatous hepatitis) [10]: 0 | Hepatotoxicity (chronic liver disease) [11]: 0 | Hepatotoxicity (cirrhosis) [12]: 0 | Hepatotoxicity (time to onset) [13]: 3 months | Hepatotoxicity (steatosis) [14]: 0 | Hepatotoxicity (acute) [15]: 0%

CO[C@@H]1[C@@H](O[C@@H]2O[C@H](C)[C@@H](O[C@H]3C[C@@](C)(O)[C@@H](OC(=O)CC(C)C)[C@H](C)O3)[C@H](N(C)C)[C@H]2O)[C@@H](CC=O)C[C@@H](C)[C@@H](O)/C=C/C=C/C[C@@H](C)OC(=O)C[C@H]1OC(C)=O [JOSAMYCIN]
Hepatotoxicity (association with vascular disease) [1]: 0 | Hepatotoxicity (acute) [2]: 9 | Hepatotoxicity (benign tumour) [3]: 0 | Hepatotoxicity (choleostasis) [4]: 5 | Hepatotoxicity (severe hepatitis) [5]: 0 | Hepatotoxicity (malignant tumour) [6]: 0 | Hepatotoxicity (moderate) [7]: 5 | Hepatotoxicity (moderate) [8]: 20% | Hepatotoxicity (cytolytic) [9]: 6 | Hepatotoxicity (granulomatous hepatitis) [10]: 0 | Hepatotoxicity (chronic liver disease) [11]: 0 | Hepatotoxicity (cirrhosis) [12]: 0 | Hepatotoxicity (time to onset) [13]: 5 days - 2 weeks | Hepatotoxicity (steatosis) [14]: 0 | Hepatotoxicity (acute) [15]: 0%

O=C(c1ccccc1)c1ccc2n1CCC2C(=O)O (stereo not given) [KETOROLAC]
Hepatotoxicity (association with vascular disease) [1]: 0 | Hepatotoxicity (acute) [2]: 1 | Hepatotoxicity (benign tumour) [3]: 0 | Hepatotoxicity (choleostasis) [4]: 1 | Hepatotoxicity (severe hepatitis) [5]: 0 | Hepatotoxicity (malignant tumour) [6]: 0 | Hepatotoxicity (moderate) [7]: 1 | Hepatotoxicity (moderate) [8]: 32% | Hepatotoxicity (cytolytic) [9]: 1 | Hepatotoxicity (granulomatous hepatitis) [10]: 0 | Hepatotoxicity (chronic liver disease) [11]: 0 | Hepatotoxicity (cirrhosis) [12]: 0 | Hepatotoxicity (time to onset) [13]: 1 day - 10 days | Hepatotoxicity (steatosis) [14]: 0 | Hepatotoxicity (acute) [15]: 1%

N[C@@H](Cc1ccc(O)c(O)c1)C(=O)O [LEVODOPA]
Hepatotoxicity (association with vascular disease) [1]: 0 | Hepatotoxicity (acute) [2]: 4 | Hepatotoxicity (benign tumour) [3]: 0 | Hepatotoxicity (choleostasis) [4]: 1 | Hepatotoxicity (severe hepatitis) [5]: 0 | Hepatotoxicity (malignant tumour) [6]: 0 | Hepatotoxicity (moderate) [7]: 1 | Hepatotoxicity (moderate) [8]: 9% | Hepatotoxicity (cytolytic) [9]: 0 | Hepatotoxicity (granulomatous hepatitis) [10]: 0 | Hepatotoxicity (chronic liver disease) [11]: 0 | Hepatotoxicity (cirrhosis) [12]: 0 | Hepatotoxicity (time to onset) [13]: < 3 months | Hepatotoxicity (steatosis) [14]: 1 | Hepatotoxicity (acute) [15]: 3.3%

C[C@H]1COc2c(N3CCN(C)CC3)c(F)cc3c(=O)c(C(=O)O)cn1c23.C[C@H]1COc2c(N3CCN(C)CC3)c(F)cc3c(=O)c(C(=O)O)cn1c23.O [LEVOFLOXACIN]
Hepatotoxicity (association with vascular disease) [1]: 0 | Hepatotoxicity (acute) [2]: 7 | Hepatotoxicity (benign tumour) [3]: 0 | Hepatotoxicity (choleostasis) [4]: 2 | Hepatotoxicity (severe hepatitis) [5]: 5 | Hepatotoxicity (malignant tumour) [6]: 0 | Hepatotoxicity (moderate) [7]: 17 | Hepatotoxicity (moderate) [8]: 30% | Hepatotoxicity (cytolytic) [9]: 6 | Hepatotoxicity (granulomatous hepatitis) [10]: 0 | Hepatotoxicity (chronic liver disease) [11]: 0 | Hepatotoxicity (cirrhosis) [12]: 0 | Hepatotoxicity (time to onset) [13]: 2 days - 3 weeks | Hepatotoxicity (steatosis) [14]: 0 | Hepatotoxicity (acute) [15]: 0%

COc1ccc2c(c1)N(C[C@H](C)CN(C)C)c1ccccc1S2 [LEVOMEPROMAZINE]
Hepatotoxicity (association with vascular disease) [1]: 0 | Hepatotoxicity (acute) [2]: 4 | Hepatotoxicity (benign tumour) [3]: 0 | Hepatotoxicity (choleostasis) [4]: 3 | Hepatotoxicity (severe hepatitis) [5]: 0 | Hepatotoxicity (malignant tumour) [6]: 0 | Hepatotoxicity (moderate) [7]: 2 | Hepatotoxicity (moderate) [8]: 4.5% | Hepatotoxicity (cytolytic) [9]: 1 | Hepatotoxicity (granulomatous hepatitis) [10]: 0 | Hepatotoxicity (chronic liver disease) [11]: 0 | Hepatotoxicity (cirrhosis) [12]: 0 | Hepatotoxicity (time to onset) [13]: 1.2 months - 2 months | Hepatotoxicity (steatosis) [14]: 0 | Hepatotoxicity (acute) [15]: 2.7%

O=C(O)Cc1cn(-c2ccccc2)nc1-c1ccc(Cl)cc1 [LONAZOLAC]
Hepatotoxicity (association with vascular disease) [1]: 0 | Hepatotoxicity (acute) [2]: 1 | Hepatotoxicity (benign tumour) [3]: 0 | Hepatotoxicity (choleostasis) [4]: 0 | Hepatotoxicity (severe hepatitis) [5]: 0 | Hepatotoxicity (malignant tumour) [6]: 0 | Hepatotoxicity (moderate) [7]: 0 | Hepatotoxicity (moderate) [8]: 0% | Hepatotoxicity (cytolytic) [9]: 0 | Hepatotoxicity (granulomatous hepatitis) [10]: 0 | Hepatotoxicity (chronic liver disease) [11]: 0 | Hepatotoxicity (cirrhosis) [12]: 0 | Hepatotoxicity (time to onset) [13]: 1 month | Hepatotoxicity (steatosis) [14]: 0 | Hepatotoxicity (acute) [15]: 1.3%

CN1CCN(C2=Nc3ccccc3Oc3ccc(Cl)cc32)CC1 [LOXAPINE]
Hepatotoxicity (association with vascular disease) [1]: 0 | Hepatotoxicity (acute) [2]: 1 | Hepatotoxicity (benign tumour) [3]: 0 | Hepatotoxicity (choleostasis) [4]: 1 | Hepatotoxicity (severe hepatitis) [5]: 0 | Hepatotoxicity (malignant tumour) [6]: 0 | Hepatotoxicity (moderate) [7]: 2 | Hepatotoxicity (moderate) [8]: 0% | Hepatotoxicity (cytolytic) [9]: 0 | Hepatotoxicity (granulomatous hepatitis) [10]: 0 | Hepatotoxicity (chronic liver disease) [11]: 0 | Hepatotoxicity (cirrhosis) [12]: 0 | Hepatotoxicity (time to onset) [13]: 1 week - 3 weeks | Hepatotoxicity (steatosis) [14]: 0 | Hepatotoxicity (acute) [15]: 0%

CN(C)[C@@H]1C(O)=C(C(=O)NCNCCCC[C@H](N)C(=O)O)C(=O)[C@@]2(O)C(O)=C3C(=O)c4c(O)cccc4[C@@](C)(O)[C@H]3C[C@@H]12 [LYMECYCLINE]
Hepatotoxicity (association with vascular disease) [1]: 0 | Hepatotoxicity (acute) [2]: 1 | Hepatotoxicity (benign tumour) [3]: 0 | Hepatotoxicity (choleostasis) [4]: 0 | Hepatotoxicity (severe hepatitis) [5]: 0 | Hepatotoxicity (malignant tumour) [6]: 0 | Hepatotoxicity (moderate) [7]: 0 | Hepatotoxicity (moderate) [8]: 0% | Hepatotoxicity (cytolytic) [9]: 1 | Hepatotoxicity (granulomatous hepatitis) [10]: 0 | Hepatotoxicity (chronic liver disease) [11]: 0 | Hepatotoxicity (cirrhosis) [12]: 0 | Hepatotoxicity (time to onset) [13]: 2.4 years | Hepatotoxicity (steatosis) [14]: 0 | Hepatotoxicity (acute) [15]: 0%

CN(C)CC(Oc1ccccc1)Oc1ccccc1 [MEDIFOXAMINE]
Hepatotoxicity (association with vascular disease) [1]: 0 | Hepatotoxicity (acute) [2]: 1 | Hepatotoxicity (benign tumour) [3]: 0 | Hepatotoxicity (choleostasis) [4]: 0 | Hepatotoxicity (severe hepatitis) [5]: 2 | Hepatotoxicity (malignant tumour) [6]: 0 | Hepatotoxicity (moderate) [7]: 0 | Hepatotoxicity (moderate) [8]: 0% | Hepatotoxicity (cytolytic) [9]: 1 | Hepatotoxicity (granulomatous hepatitis) [10]: 0 | Hepatotoxicity (chronic liver disease) [11]: 0 | Hepatotoxicity (cirrhosis) [12]: 0 | Hepatotoxicity (time to onset) [13]: 6 days | Hepatotoxicity (steatosis) [14]: 0 | Hepatotoxicity (acute) [15]: 0%

CCCC(C)(COC(N)=O)COC(N)=O [MEPROBAMATE]
Hepatotoxicity (association with vascular disease) [1]: 0 | Hepatotoxicity (acute) [2]: 2 | Hepatotoxicity (benign tumour) [3]: 0 | Hepatotoxicity (choleostasis) [4]: 1 | Hepatotoxicity (severe hepatitis) [5]: 0 | Hepatotoxicity (malignant tumour) [6]: 0 | Hepatotoxicity (moderate) [7]: 0 | Hepatotoxicity (moderate) [8]: 0% | Hepatotoxicity (cytolytic) [9]: 0 | Hepatotoxicity (granulomatous hepatitis) [10]: 0 | Hepatotoxicity (chronic liver disease) [11]: 0 | Hepatotoxicity (cirrhosis) [12]: 0 | Hepatotoxicity (time to onset) [13]: 2 weeks - 6 months | Hepatotoxicity (steatosis) [14]: 0 | Hepatotoxicity (acute) [15]: 0%

C[C@H]1CC(=O)C[C@@H]2CC[C@H]3[C@@H]4CC[C@H](O)[C@@]4(C)CC[C@@H]3[C@]21C [MESTEROLONE]
Hepatotoxicity (association with vascular disease) [1]: 0 | Hepatotoxicity (acute) [2]: 1 | Hepatotoxicity (benign tumour) [3]: 0 | Hepatotoxicity (choleostasis) [4]: 0 | Hepatotoxicity (severe hepatitis) [5]: 0 | Hepatotoxicity (malignant tumour) [6]: 0 | Hepatotoxicity (moderate) [7]: 0 | Hepatotoxicity (moderate) [8]: 0% | Hepatotoxicity (cytolytic) [9]: 1 | Hepatotoxicity (granulomatous hepatitis) [10]: 0 | Hepatotoxicity (chronic liver disease) [11]: 0 | Hepatotoxicity (cirrhosis) [12]: 0 | Hepatotoxicity (time to onset) [13]: 2 years | Hepatotoxicity (steatosis) [14]: 0 | Hepatotoxicity (acute) [15]: 0%

CNC1Cc2ccccc2N(C)c2ccccc21 (stereo not given) [METAPRAMINE]
Hepatotoxicity (association with vascular disease) [1]: 0 | Hepatotoxicity (acute) [2]: 1 | Hepatotoxicity (benign tumour) [3]: 0 | Hepatotoxicity (choleostasis) [4]: 1 | Hepatotoxicity (severe hepatitis) [5]: 0 | Hepatotoxicity (malignant tumour) [6]: 0 | Hepatotoxicity (moderate) [7]: 0 | Hepatotoxicity (moderate) [8]: 0% | Hepatotoxicity (cytolytic) [9]: 1 | Hepatotoxicity (granulomatous hepatitis) [10]: 0 | Hepatotoxicity (chronic liver disease) [11]: 0 | Hepatotoxicity (cirrhosis) [12]: 0 | Hepatotoxicity (time to onset) [13]: 3 weeks - 3 months | Hepatotoxicity (steatosis) [14]: 1 | Hepatotoxicity (acute) [15]: 0%
